Reference: US12403141B2, “Deuterated MK2 pathway inhibitors and methods of using the same” (ACLARIS THERAPEUTICS, INC., priority 2019, dated 2025)

Columns and labels:
Type in all cases: in vitro ADME
rat hepatocytes = assay: In vitro metabolite profile in rat hepatocytes; parameters: key to UV % at 280-290 nm or observed (+ or --), metabolite M532b (Hydroxylation) / UV % at 280-290 nm or observed (+ or --), metabolite M532d (Hydroxylation) / UV % at 280-290 nm or observed (+ or --), metabolite M532e (Hydroxylation) / UV % at 280-290 nm or observed (+ or --), metabolite M530b (Hydroxylation) / UV % at 280-290 nm or observed (+ or --), metabolite M530d (Hydroxylation) / UV % at 280-290 nm or observed (+ or --), metabolite M530e (Hydroxylation): +: only detected by MS; --: not detected or trace; conditions: 10 μM; for UV % at 280-290 nm, Parent-T0 min: T0 min (normalized as 100%)
Protocol: (§1) Briefly, each test compound (final concentration of 10 μM containing 0.1% DMSO) was incubated with rat, dog, minipig, monkey, or human hepatocytes (final viable cell density of 1×10^6 cells/mL) at 37° C. with 5% CO2 in HI hepatocyte maintenance media (BIOIVT; Catalog #Z99009) for 120 minutes. Reactions were initiated by combining 200 μL of pre-warmed 2× dosing solution containing 20 μM test compound and 0.2% DMSO in HI maintenance media with 200 μL of pre-warmed hepatocyte solution containing 2×10^6 cells/mL in HI maintenance media. Samples were taken at 0 minutes (T0) and 120 minutes (T120) by quenching the reaction with 1200 μL acetonitrile. After quenching, the samples were sonicated for 2 minutes and then centrifuged at 1400 rpm for 5 minutes. A 1400-μL aliquot of the supernatant was evaporated under a stream of N2 until dry. The dried extracts were then reconstituted with 200 μL acetonitrile: H2O (1:3 v/v), vortexed for 2 minutes and centrifuged at 14000 rpm for 5 minutes. A 2-μL aliquot of the supernatant was injected onto a Xevo UPLC-UV-G2-S Q-Tof system (Waters®) with positive-ion electrospray ionization for analysis. Chromatographic separation was achieved on an Acquity UPLC®BEH C18 column (2.1×50 mm, 1.7 μm; Waters®) by gradient elution using varying proportions of mobile phase A (H2O with 0.1% formic acid) and mobile phase B (acetonitrile with 0.1% formic acid) at a constant flow rate of 400 μL/minute over a total run time of 10 minutes. LC-UV-MS extract ion chromatograms (EIC) of the T120 samples were compared to the T0 samples to identify the major putative metabolites which were named as Mm/z.

dog hepatocytes = assay: In vitro metabolite profile in dog hepatocytes; parameters: key to UV % at 280-290 nm or observed (+ or --), metabolite M387 (O-dealkylation) / UV % at 280-290 nm or observed (+ or --), metabolite M532b (Hydroxylation) / UV % at 280-290 nm or observed (+ or --), metabolite M532c (Hydroxylation) / UV % at 280-290 nm or observed (+ or --), metabolite M532d (Hydroxylation) / UV % at 280-290 nm or observed (+ or --), metabolite M532e (Hydroxylation) / UV % at 280-290 nm or observed (+ or --), metabolite M563 (O-dealkylation + Glucuronidation) / UV % at 280-290 nm or observed (+ or --), metabolite M530b (Hydroxylation) / UV % at 280-290 nm or observed (+ or --), metabolite M530c (Hydroxylation) / UV % at 280-290 nm or observed (+ or --), metabolite M530d (Hydroxylation) / UV % at 280-290 nm or observed (+ or --), metabolite M530e (Hydroxylation): +: only detected by MS; --: not detected or trace; conditions: 10 μM; for UV % at 280-290 nm, Parent-T0 min: T0 min (normalized as 100%)
Protocol: as §1

minipig hepatocytes = assay: In vitro metabolite profile in minipig hepatocytes; parameters: key to UV % at 280-290 nm or observed (+ or --), metabolite M532b (Hydroxylation) / UV % at 280-290 nm or observed (+ or --), metabolite M532c (Hydroxylation) / UV % at 280-290 nm or observed (+ or --), metabolite M563 (O-dealkylation + Glucuronidation) / UV % at 280-290 nm or observed (+ or --), metabolite M530b (Hydroxylation) / UV % at 280-290 nm or observed (+ or --), metabolite M530c (Hydroxylation): +: only detected by MS; --: not detected or trace; conditions: 10 μM; for UV % at 280-290 nm, Parent-T0 min: T0 min (normalized as 100%)
Protocol: as §1

human hepatocytes = assay: In vitro metabolite profile in human hepatocytes; parameters: key to UV % at 280-290 nm or observed (+ or --), metabolite M387 (O-dealkylation) / UV % at 280-290 nm or observed (+ or --), metabolite M532b (Hydroxylation) / UV % at 280-290 nm or observed (+ or --), metabolite M532e (Hydroxylation) / UV % at 280-290 nm or observed (+ or --), metabolite M563 (O-dealkylation + Glucuronidation) / UV % at 280-290 nm or observed (+ or --), metabolite M530b (Hydroxylation) / UV % at 280-290 nm or observed (+ or --), metabolite M530e (Hydroxylation): +: only detected by MS; --: not detected or trace; conditions: 10 μM; for UV % at 280-290 nm, Parent-T0 min: T0 min (normalized as 100%)
Protocol: as §1

[1] = tested on: rat, dog, minipig, monkey, and human hepatocytes; assay: In vitro metabolite profile in hepatocytes, summary across species; conditions: hepatocytes from rat, 10 μM, 120 min
Protocol: as §1, with “Chromatographic separation was achieved on an Acquity UPLC®BEH C18 column (2.1×50 mm, 1.7 μm; Waters®) by gradient elution using varying proportions of mobile phase A (H2O with 0.1% formic acid) and mobile phase B (acetonitrile with 0.1% formic acid) at a constant flow rate of 400 μL/minute over a total run time of 10 minutes. LC-UV-MS extract ion chromatograms (EIC) of the T120 samples were compared to the T0 samples to identify the major putative metabolites which were named as Mm/z.” left out

[2] = 120 min, relative to parent at T0

## Cc1cnc(-c2ccnc(C(C)(C)O)n2)cc1-n1c(C)cc(OCc2ncc(F)cc2F)c(Cl)c1=O (atropisomer, axis not shown; (P)) [Example 1-H2, (P)-3-chloro-4-((3,5-difluoropyridin-2-yl)methoxy)-2′-(2-(2-hydroxypropan-2-yl)pyrimidin-4-yl)-5′,6-dimethyl-2H-[1,4′-bipyridin]-2-one]
Rat hepatocytes; [2]
  UV % at 280-290 nm or observed (+ or --), metabolite M387 (O-dealkylation): 16.2%
  UV % at 280-290 nm or observed (+ or --), metabolite M530b (Hydroxylation): +
  UV % at 280-290 nm or observed (+ or --), metabolite M530c (Hydroxylation): 1.1%
  UV % at 280-290 nm or observed (+ or --), metabolite M530e (Hydroxylation): +
  UV % at 280-290 nm or observed (+ or --), metabolite M563 (O-dealkylation + Glucuronidation): 1.06%
  UV % at 280-290 nm or observed (+ or --), metabolite M530d (Hydroxylation): --
  UV % at 280-290 nm, Parent-T120 min: 82.7%
Rat hepatocytes
  UV % at 280-290 nm, Parent-T0 min: 100.0%
Dog hepatocytes; [2]
  UV % at 280-290 nm or observed (+ or --), metabolite M387 (O-dealkylation): 4.1%
  UV % at 280-290 nm or observed (+ or --), metabolite M530b (Hydroxylation): --
  UV % at 280-290 nm or observed (+ or --), metabolite M530c (Hydroxylation): +
  UV % at 280-290 nm or observed (+ or --), metabolite M530e (Hydroxylation): +
  UV % at 280-290 nm or observed (+ or --), metabolite M563 (O-dealkylation + Glucuronidation): +
  UV % at 280-290 nm or observed (+ or --), metabolite M530d (Hydroxylation): --
  UV % at 280-290 nm, Parent-T120 min: 87.0%
Dog hepatocytes
  UV % at 280-290 nm, Parent-T0 min: 100.0%
Minipig hepatocytes; [2]
  UV % at 280-290 nm or observed (+ or --), metabolite M387 (O-dealkylation): 14.4%
  UV % at 280-290 nm or observed (+ or --), metabolite M530b (Hydroxylation): --
  UV % at 280-290 nm or observed (+ or --), metabolite M530c (Hydroxylation): +
  UV % at 280-290 nm or observed (+ or --), metabolite M530e (Hydroxylation): 2.4%
  UV % at 280-290 nm or observed (+ or --), metabolite M563 (O-dealkylation + Glucuronidation): +
  UV % at 280-290 nm or observed (+ or --), metabolite M530d (Hydroxylation): 1.6%
  UV % at 280-290 nm, Parent-T120 min: 70.0%
Minipig hepatocytes
  UV % at 280-290 nm, Parent-T0 min: 100.0%
Human hepatocytes; [2]
  UV % at 280-290 nm or observed (+ or --), metabolite M387 (O-dealkylation): 3.5%
  UV % at 280-290 nm or observed (+ or --), metabolite M530b (Hydroxylation): +
  UV % at 280-290 nm or observed (+ or --), metabolite M530c (Hydroxylation): 1.3%
  UV % at 280-290 nm or observed (+ or --), metabolite M530e (Hydroxylation): +
  UV % at 280-290 nm or observed (+ or --), metabolite M563 (O-dealkylation + Glucuronidation): --
  UV % at 280-290 nm or observed (+ or --), metabolite M530d (Hydroxylation): 1.5%
  UV % at 280-290 nm, Parent-T120 min: 84.8%
Human hepatocytes
  UV % at 280-290 nm, Parent-T0 min: 100.0%

## [2H]C([2H])(Oc1cc(C)n(-c2cc(-c3ccnc(C(C)(C)O)n3)ncc2C)c(=O)c1Cl)c1ncc(F)cc1F (single isomer, unassigned) [Example 1-D2, (P)-3-Chloro-4-((3,5-difluoropyridin-2-yl)methoxy-d2)-2′-(2-(2-hydroxypropan-2-yl)pyrimidin-4-yl)-5′,6-dimethyl-2H-[1,4′-bipyridin]-2-one]
Rat hepatocytes; [2]
  UV % at 280-290 nm or observed (+ or --), metabolite M532b (Hydroxylation): --
  UV % at 280-290 nm or observed (+ or --), metabolite M532e (Hydroxylation): +
  UV % at 280-290 nm or observed (+ or --), metabolite M532d (Hydroxylation): --
  UV % at 280-290 nm, Parent-T120 min: 84.3%
Rat hepatocytes
  UV % at 280-290 nm, Parent-T0 min: 100.0%
Dog hepatocytes; [2]
  UV % at 280-290 nm or observed (+ or --), metabolite M387 (O-dealkylation): +
  UV % at 280-290 nm or observed (+ or --), metabolite M532b (Hydroxylation): --
  UV % at 280-290 nm or observed (+ or --), metabolite M532c (Hydroxylation): +
  UV % at 280-290 nm or observed (+ or --), metabolite M532e (Hydroxylation): +
  UV % at 280-290 nm or observed (+ or --), metabolite M532d (Hydroxylation): --
  UV % at 280-290 nm, Parent-T120 min: 96.0%
Dog hepatocytes
  UV % at 280-290 nm, Parent-T0 min: 100.0%
Minipig hepatocytes; [2]
  UV % at 280-290 nm or observed (+ or --), metabolite M532b (Hydroxylation): +
  UV % at 280-290 nm or observed (+ or --), metabolite M532c (Hydroxylation): +
  UV % at 280-290 nm, Parent-T120 min: 81.1%
Minipig hepatocytes
  UV % at 280-290 nm, Parent-T0 min: 100.0%
Human hepatocytes; [2]
  UV % at 280-290 nm or observed (+ or --), metabolite M387 (O-dealkylation): +
  UV % at 280-290 nm or observed (+ or --), metabolite M532b (Hydroxylation): +
  UV % at 280-290 nm or observed (+ or --), metabolite M532e (Hydroxylation): +
  UV % at 280-290 nm, Parent-T120 min: 88.2%
Human hepatocytes
  UV % at 280-290 nm, Parent-T0 min: 100.0%
[1]
  total number of metabolites formed: 5
